Experimental data as given in patent US10472341B2, “Bicyclic tetrahydrothiazepine derivatives useful for the treatment of neoplastic and/or infectious diseases” (APEIRON BIOLOGICS AG, priority 2015, dated 2019).
Structures can show the parent of a compound that is named as a salt. Where two headings read alike, the source gives them in different places.

Key:
[1] = system: aCD3/aCD28-stimulated human CD4+-T-cells; experiment: IL-2 production and activation markers in aCD3/aCD28 stimulated isolated human CD4+-T-cells; assay type: cell-based; conditions: IL-2 production at 3 μM compound
Procedure: • Buffy coat content was transferred to sterile plastic bottle and filled up to 480 ml with PBS, and distributed equally to 16×50 ml tubes (30 ml/tube) • Underlayed with ˜11 ml Lymphoprep and centrifuged 20 min (2200 rpm) • The interphase containing lymphocytes was taken off with transfer pipette, cells were washed twice with PBS and pooled to one tube to determine cell count (Coulter Diff ACT) Isolation of Immune Cell Subfractions from PBMCs by MACS • PBMCs were resuspended in MACS buffer (80 μl MACS-buffer/10^7 cells) and cells were isolated with Auto-MACS device using respective kits following manufacturer's recommendations TCR Stimulation and Measurement of T Cell Activation
Isolated T cells were plated in Xvivo medium at 1.5*10 ^5 cells per in 96 well culture plates and TCR-stimulated with anti-CD3/28 mAbs in the presence of compound as indicated. Cytokine production was determined at 24 h or 48 h following TCR stimulation in cell culture supernatants using commercially available ELISA kits (BD and eBioscience) as recommended by the manufacturer. T cell proliferation and CD25 expression (CD25-PC5 reagent purchased from Beckman Coulter) was determined by flow cytometry (Beckman-Coulter FC500) and analysed with Kaluza Software. For measurement of CD69 expression, isolated CD4 and CD8 T cells were plated in Xvivo medium at […] per in 96 well culture plates and TCR-stimulated with anti-CD3/28 mAbs in the presence of compound. CD69 expression was determined at 24 h following TCR stimulation by flow cytometry (CD4eF450, CD8APCeF780 and CD69-PC7 reagent purchased from eBioscience) and analysed with Kaluza Software.
Buffy coats were obtained from Austrian Red Cross, diluted 3 fold with PBS and layered onto an isotonic Ficoll separating solution d=1.077 g/m in 50 ml centrifuge tubes. The tubes were centrifuged at 914 g for 25 min at room temperature with the brakes off. The PBMC layer was removed and washed twice with ice-cold PBS. CD4 T cells were isolated using CD4 microbeads (Milteny) and the AutoMACS device following manufacturer's instructions.
Compound examples of the present invention were classified according to the following activity criteria and are listed in Table 4a: • Activity Class A: IL-2 production at 3 μM compound concentration >10 ng/mL • Activity Class B: IL-2 production at 3 μM compound concentration between 2-10 ng/mL • Activity Class C: IL-2 production at 3 μM compound concentration between 2-fold increase as compared to mean IL-2 production of stimulated cells in the absence of compounds and <2 ng/mL

[2] = system: aCD3/aCD28-stimulated human PBMCs; experiment: Cytokine production in aCD3/aCD28 stimulated human PBMCs; assay type: cell-based; conditions: PBMC, 18 h
Procedure: In order to determine the immune modulatory effect of compounds of compounds of the present invention in human PBMCs, compounds were assessed in the following assay set-up:
Buffy coats were obtained from a local hospital, diluted 3 fold with PBS and layered onto an isotonic Ficoll separating solution d=1.077 g/mL in 50 mL centrifuge tubes. The tubes were centrifuged at 914 g for 25 min at room temperature with the brakes off. The PBMC layer was removed and washed twice with ice-cold PBS. Erythrocytes were lysed by addition of ddH2O and cells were resuspended in X-Vivo15 (Lonza).
1e6 cells/mL were stimulated with soluble anti CD3/CD28 antibodies (1 μg/mL both, clones OKT3 and 28.2) in the presence of described compounds. Cells were incubated for 18 h at 37° C., 5% CO2. Assay plates were centrifuged at 400 g for 5 min and supernatants harvested. Cytokine concentration in tissue culture supernatants were determined with MSD or HTRF kits (MSD and Cisbio), according to manufacturer's instructions.

[3] = enhancement of IFN-γ production, read-out: Activity Class IFN-γ
[4] = enhancement of IL-2 production, read-out: Activity Class IL-2

Row | SMILES | Activity Class CD4+ [1] | EC50 [2, 3] [µM] | EC50 [2, 4] [µM]
1 | N[C@H]1CSc2ccc(C(=O)NCC3CCOCC3)cc2N(Cc2ccc(F)cc2)C1=O [Example 45, (3R)-3-amino-5-[(4-fluorophenyl)methyl]-N-(oxan-4-ylmethyl)-4-oxo-2,3,4,5-tetrahydro-1,5-benzothiazepine-7-carboxamide] | C (IL-2 production at 3 μM compound concentration between 2-fold increase as compared to mean IL-2 production of stimulated cells in the absence of compounds and <2 ng/mL) | – | –
2 | Cl.N[C@H]1CSc2cc(F)c(C(=O)NNc3ccc(F)cc3)cc2N(Cc2ccc(Cl)cc2)C1=O [Example 52, (3R)-3-amino-5-[(4-chlorophenyl)methyl]-8-fluoro-N′-(4-fluorophenyl)-4-oxo-2,3,4,5-tetrahydro-1,5-benzothiazepine-7-carbohydrazide hydrochloride] | C (IL-2 production at 3 μM compound concentration between 2-fold increase as compared to mean IL-2 production of stimulated cells in the absence of compounds and <2 ng/mL) | – | –
3 | CC(C)CONC(=O)c1ccc2c(c1)N(Cc1ccc(Cl)cc1)C(=O)[C@@H](N)CS2(=O)=O.Cl [Example 81, (3R)-3-amino-5-[(4-chlorophenyl)methyl]-N-(2-methylpropoxy)-1,1,4-trioxo-2,3,4,5-tetrahydro-1λ^6,5-benzothiazepine-7-carboxamide hydrochloride] | C (IL-2 production at 3 μM compound concentration between 2-fold increase as compared to mean IL-2 production of stimulated cells in the absence of compounds and <2 ng/mL) | – | –
4 | CC(C)(C)c1cc(NC(=O)c2ccc3c(c2)N(Cc2ccc(Cl)cc2)C(=O)[C@@H](N)CS3)no1.Cl [Example 24, (3R)-3-amino-N-(5-tert-butyl-1,2-oxazol-3-yl)-5-[(4-chlorophenyl)methyl]-4-oxo-2,3,4,5-tetrahydro-1,5-benzothiazepine-7-carboxamide hydrochloride] | C (IL-2 production at 3 μM compound concentration between 2-fold increase as compared to mean IL-2 production of stimulated cells in the absence of compounds and <2 ng/mL) | – | –
5 | Cl.N[C@H]1CSc2cc(F)c(C(=O)NCc3ccccc3)cc2N(Cc2ccc(OC(F)(F)F)cc2)C1=O [Example 16, (3R)-3-amino-N-benzyl-8-fluoro-4-oxo-5-{[4-(trifluoromethoxy)phenyl]methyl}-2,3,4,5-tetrahydro-1,5-benzothiazepine-7-carboxamide hydrochloride] | B (IL-2 production at 3 μM compound concentration between 2-10 ng/mL) | – | –
6 | CC(=O)NCCCCCOc1ccc(CNC(=O)c2ccc3c(c2)N(Cc2ccc(OC(F)(F)F)cc2)C(=O)[C@@H](N)CS3)cc1.Cl [Example 19, (3R)-3-amino-N-({4-[(5-acetamidopentyl)oxy]phenyl}methyl)-4-oxo-5-{[4-(trifluoromethoxy)phenyl]methyl}-2,3,4,5-tetrahydro-1,5-benzothiazepine-7-carboxamide hydrochloride] | C (IL-2 production at 3 μM compound concentration between 2-fold increase as compared to mean IL-2 production of stimulated cells in the absence of compounds and <2 ng/mL) | – | –
7 | CC(C)CONC(=O)c1ccc2c(c1)N(Cc1ccc(Cl)cc1)C(=O)[C@@H](N)CS2.Cl [Example 62, (3R)-3-amino-5-[(4-chlorophenyl)methyl]-N-(2-methylpropoxy)-4-oxo-2,3,4,5-tetrahydro-1,5-benzothiazepine-7-carboxamide hydrochloride] | C (IL-2 production at 3 μM compound concentration between 2-fold increase as compared to mean IL-2 production of stimulated cells in the absence of compounds and <2 ng/mL) | – | –
8 | Cl.N[C@H]1CS(=O)(=O)c2cc(F)c(C(=O)N[C@@H]3CC3(F)F)cc2N(Cc2ccc(Cl)cc2)C1=O (single isomer, unassigned) [Example 106] | B (IL-2 production at 3 μM compound concentration between 2-10 ng/mL) | – | –
9 | COc1ccc(CNC(=O)c2cc3c(cc2F)SC[C@H](NCCCCCNC(=O)OC(C)(C)C)C(=O)N3Cc2ccc(Cl)cc2)cc1 [Example 115, tert-butyl N-(5-{[(3R)-5-[(4-chlorophenyl)methyl]-8-fluoro-7-{[(4-methoxyphenyl)methyl]carbamoyl}-4-oxo-2,3,4,5-tetrahydro-1,5-benzothiazepin-3-yl]amino}pentyl)carbamate] | C (IL-2 production at 3 μM compound concentration between 2-fold increase as compared to mean IL-2 production of stimulated cells in the absence of compounds and <2 ng/mL) | – | –
10 | CC(C)(C)ONC(=O)c1ccc2c(c1)N(Cc1ccc(Cl)cc1)C(=O)[C@@H](N)CS2(=O)=O.Cl [Example 97, (3R)-3-amino-N-(tert-butoxy)-5-[(4-chlorophenyl)methyl]-1,1,4-trioxo-2,3,4,5-tetrahydro-1λ^6,5-benzothiazepine-7-carboxamide hydrochloride] | C (IL-2 production at 3 μM compound concentration between 2-fold increase as compared to mean IL-2 production of stimulated cells in the absence of compounds and <2 ng/mL) | – | –
11 | CCCCNC(=O)c1ccc2c(c1)N(Cc1ccc(C(N)=O)cc1)C(=O)[C@@H](N)CS2.Cl [Example 47, (3R)-3-amino-N-butyl-5-[(4-carbamoylphenyl)methyl]-4-oxo-2,3,4,5-tetrahydro-1,5-benzothiazepine-7-carboxamide hydrochloride] | C (IL-2 production at 3 μM compound concentration between 2-fold increase as compared to mean IL-2 production of stimulated cells in the absence of compounds and <2 ng/mL) | – | –
12 | Cl.N[C@H]1CS(=O)(=O)c2ccc(C(=O)NOC3CCCCC3)cc2N(Cc2ccc(Cl)cc2)C1=O [Example 90, (3R)-3-amino-5-[(4-chlorophenyl)methyl]-N-(cyclohexyloxy)-1,1,4-trioxo-2,3,4,5-tetrahydro-1λ^6,5-benzothiazepine-7-carboxamide hydrochloride] | A (IL-2 production at 3 μM compound concentration >10 ng/mL) | – | –
13 | N[C@H]1CS(=O)(=O)c2ccc(C(=O)NC3CC4(COC4)C3)cc2N(Cc2ccc(Cl)cc2)C1=O [Example 181, (3R)-3-amino-5-[(4-chlorophenyl)methyl]-N-{2-oxaspiro[3.3]heptan-6-yl}-1,1,4-trioxo-2,3,4,5-tetrahydro-1λ^6,5-benzothiazepine-7-carboxamide] | – | > 5.01 | > 5.01
14 | N[C@H]1CS(=O)(=O)c2ccc(C(=O)N[C@@H]3C[C@@H]3F)cc2N(Cc2ccc(Cl)cc2)C1=O [Example 147, (3R)-3-amino-5-[(4-chlorophenyl)methyl]-N-[(1R,2S)-2-fluorocyclopropyl]-1,1,4-trioxo-2,3,4,5-tetrahydro-1λ^6,5-benzothiazepine-7-carboxamide] | – | > 5.01 | > 5.01
15 | N[C@H]1CS(=O)(=O)c2cc(F)c(C(=O)NC3CCOCC3)cc2N(Cc2ccc(Cl)cc2)C1=O [Example 144, (3R)-3-amino-5-[(4-chlorophenyl)methyl]-8-fluoro-N-(oxan-4-yl)-1,1,4-trioxo-2,3,4,5-tetrahydro-1λ^6,5-benzothiazepine-7-carboxamide] | – | 1.58 to 5.01 | > 5.01
16 | C[C@@H]1[C@H](N)C(=O)N(Cc2ccc(Cl)cc2)c2cc(C(=O)NCCCC(F)(F)F)c(F)cc2S1(=O)=O [Example 118, (2R,3R)-3-amino-5-[(4-chlorophenyl)methyl]-8-fluoro-2-methyl-1,1,4-trioxo-N-(4,4,4-trifluorobutyl)-2,3,4,5-tetrahydro-1λ^6,5-benzothiazepine-7-carboxamide hydrochloride] | – | < 1.58 | 1.58 to 5.01
